Where a name gives a salt, the structure may show the parent alone.
These compounds were tested against T1, glycine transporter-1 (GlyT-1) (Homo sapiens, UniProt P48067) (assay: [14C]glycine uptake assay in JAR cells endogenously expressing GlyT-1 (scintillation proximity)). Settings: JAR cells, [14C]glycine 5 μM, 3 hour incubation; read-out: GlyT-1 IC50.
T1 construct: JAR cells (ATCC#HTB-144), which endogenously express GlyT-1; host or cells: JAR human choriocarcinoma cells
T1 sequence (P48067 1-706): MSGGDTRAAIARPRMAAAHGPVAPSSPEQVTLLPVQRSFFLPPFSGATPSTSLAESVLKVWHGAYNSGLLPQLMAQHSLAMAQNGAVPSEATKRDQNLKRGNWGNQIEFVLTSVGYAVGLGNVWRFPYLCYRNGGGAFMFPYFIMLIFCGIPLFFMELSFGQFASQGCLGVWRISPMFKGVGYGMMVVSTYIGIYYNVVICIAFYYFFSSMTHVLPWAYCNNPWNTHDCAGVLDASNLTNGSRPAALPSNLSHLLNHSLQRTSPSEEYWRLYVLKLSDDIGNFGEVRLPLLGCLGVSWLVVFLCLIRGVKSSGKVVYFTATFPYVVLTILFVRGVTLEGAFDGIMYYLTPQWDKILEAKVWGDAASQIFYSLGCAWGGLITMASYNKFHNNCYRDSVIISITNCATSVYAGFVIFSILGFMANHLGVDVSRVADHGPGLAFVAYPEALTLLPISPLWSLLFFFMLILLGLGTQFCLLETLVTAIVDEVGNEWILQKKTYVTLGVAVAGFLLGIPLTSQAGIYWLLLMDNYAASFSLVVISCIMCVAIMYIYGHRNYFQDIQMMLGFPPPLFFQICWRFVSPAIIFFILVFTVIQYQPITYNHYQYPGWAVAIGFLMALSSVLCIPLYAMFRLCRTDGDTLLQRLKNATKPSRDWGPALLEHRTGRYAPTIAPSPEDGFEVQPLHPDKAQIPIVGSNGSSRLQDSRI
Format: cell-based
Description: The inhibitory activity of compounds of the invention against the glycine transporter-1 (GlyT-1) can be determined by the following scintillation proximity assay. The potency of each compound was assessed in inhibiting the uptake of radiolabeled glycine ([^14C]glycine) using the human choriocarcinoma cell line, JAR cells (ATCC#HTB-144), which endogenously express GlyT-1. In brief, 50,000 JARS cells were plated per well of tissue culture treated 96-well Cytostar-T plate (PerkinElmer) in RPMI media supplemented with 10% heat inactivated FBS and allowed to attach overnight at 37° C. and 5% CO2. Compounds were serially diluted 3-fold in DMSO generating a nine (9) data point response curve for each compound. Two replicates were performed per determination. The compounds were then diluted into Uptake Buffer (10 mM Hepes, 120 mM NaCl, 2 mM KCl, 1 mM CaCl2 and 1 mM MgCl2, 5 mM Alanine, pH 7.4) with a final DMSO concentration of 0.75% (v/v). Following the overnight incubation, the media was replaced with Uptake Buffer in the presence or absence of diluted compound and pre-incubated at room temperature for 10 minutes prior to the addition of [^14C]glycine at a final concentration of 5 μM. Following a 3 hour incubation period at 37° C. and 5% CO2, the plates were sealed and placed at room temperature in the dark for 15 minutes prior to quantification of incorporated radioactivity using a MicroBeta Trilux scintillation plate reader (PerkinElmer). Data were fit into a four-parameter model to determine the inhibitor concentration at half-maximal response (IC50). The assay window was established by control wells incubated with [^14C]glycine in the presence or absence of 10 mM non-labeled glycine. A dose response curve for a synthesized reference standard was generated on every plate as a positive control.
An IC50 of 25 nM was found for `Cc1ccccc1C(=O)NCC1(N2CCN(S(=O)(=O)c3cn(C)cn3)CC2)CCC(F)(F)CC1` [compound 179, N-((4,4-difluoro-1-(4-(1-methyl-1H-imidazol-4-ylsulfonyl)piperazin-1-yl)cyclohexyl)methyl)-2-methylbenzamide Hydrochloride] in this work. An IC50 of 329 nM was found for `CCS(=O)(=O)N1CCN(C2(CNC(=O)c3cc(F)c(F)cc3Cl)CCC(F)(F)CC2)CC1` [compound 214, 2-Chloro-N-((1-(4-(ethylsulfonyl)piperazin-1-yl)-4,4-difluorocyclohexyl)methyl)-4,5-difluorobenzamide Hydrochloride] in this work. An IC50 of 14 nM was found for `CCCS(=O)(=O)N1CCN(C2(CNC(=O)c3c(F)cc(Cl)cc3Cl)CCC(F)(F)CC2)CC1` [compound 255, 2,4-Dichloro-N-((4,4-difluoro-1-(4-(propylsulfonyl)piperazin-1-yl)cyclohexyl)methyl)-6-Fluorobenzamide Hydrochloride] in this work. An IC50 of 6 nM was found for `Cc1cccc(F)c1C(=O)NCC1(N2CCN(S(=O)(=O)c3cn(C)cn3)CC2)CCC(F)(F)CC1` [compound 182, N-((4,4-Difluoro-1-(4-(1-methyl-1H-imidazol-4-ylsulfonyl)piperazin-1-yl)cyclohexyl)methyl)-2-fluoro-6-methylbenzamide Hydrochloride] in this work. An IC50 of 26 nM was found for `CCCS(=O)(=O)N1CCN(C2(CNC(=O)c3c(C)cccc3Cl)CCC(F)(F)CC2)CC1` [compound 155, 2-Chloro-N-((4,4-difluoro-1-(4-(propylsulfonyl)piperazin-1-yl)cyclohexyl)methyl)-6-methylbenzamide Hydrochloride] in this work. An IC50 of 57 nM was found for `CCCS(=O)(=O)N1CCN(C2(CNC(=O)c3cc(Cl)ccc3Cl)CCC(F)(F)CC2)CC1` [compound 243, 2,5-Dichloro-N-((4,4-difluoro-1-(4-(propylsulfonyl)piperazin-1-yl)cyclohexyl)methyl) benzamide Hydrochloride] in this work. An IC50 of 2780 nM was found for `CCS(=O)(=O)N1CCN(C2(CNC(=O)c3c(F)ccc(C(F)(F)F)c3F)CCC(F)(F)CC2)CC1` [compound 211, N-((1-(4-(Ethylsulfonyl)piperazin-1-yl)-4,4-difluorocyclohexyl)methyl)-2,6-difluoro-3-(trifluoromethyl) benzamide Hydrochloride] in this work. An IC50 of 1 nM was found for `Cc1ccc(C(=O)NCC2(N3CCN(S(=O)(=O)c4cn(C)nn4)CC3)CCC(F)(F)CC2)c(Cl)c1F` [compound 242, 2-Chloro-N-((4,4-difluoro-1-(4-(1-methyl-1H-1,2,3-triazol-4-ylsulfonyl)piperazin-1-yl)cyclohexyl)methyl)-3-fluoro-4-methylbenzamide Hydrochloride] in this work. An IC50 of 52 nM was found for `CCCS(=O)(=O)N1CCN(C2(CNC(=O)c3ccc(F)cc3C)CCC(F)(F)CC2)CC1` [compound 145, N-((4,4-Difluoro-1-(4-(propylsulfonyl)piperazin-1-yl)cyclohexyl)methyl)-4-fluoro-2-methylbenzamide Hydrochloride] in this work. An IC50 of 2 nM was found for `Cn1cnc(S(=O)(=O)N2CCN(C3(CNC(=O)c4ccc(F)cc4C(F)(F)F)CCC(F)(F)CC3)CC2)c1` [compound 169, N-((4,4-Difluoro-1-(4-(1-methyl-1H-imidazol-4-ylsulfonyl)piperazin-1-yl)cyclohexyl)methyl)-4-fluoro-2-(trifluoromethyl)benzamide Hydrochloride] in this work. An IC50 of 2440 nM was found for `CCCS(=O)(=O)N1CCN(C2(CNC(=O)c3c(N)cccc3Cl)CCC2)CC1` [compound 78, 2-Amino-6-chloro-N-((1-(4-(propylsulfonyl)piperazin-1-yl)cyclobutyl)methyl) benzamide Hydrochloride] in this work. An IC50 of 29 nM was found for `CCCS(=O)(=O)N1CCN(C2(CNC(=O)c3c(Cl)cccc3OC(F)(F)F)CCC(F)(F)CC2)CC1` [compound 159, 2-Chloro-N-((4,4-difluoro-1-(4-(propylsulfonyl)piperazin-1-yl)cyclohexyl)methyl)-6-(trifluoromethoxy) benzamide Hydrochloride] in this work. An IC50 of 887 nM was found for `CCCS(=O)(=O)N1CCN(C2(CNC(=O)c3ccc(C)cc3)CCCCCC2)CC1` [compound 57, 4-Methyl-N-((1-(4-(propylsulfonyl)piperazin-1-yl)cycloheptyl)methyl) benzamide Hydrochloride] in this work. An IC50 of 95 nM was found for `CCS(=O)(=O)N1CCN(C2(CNC(=O)c3ccc(C(F)(F)F)cc3C(F)(F)F)CCC(F)(F)CC2)CC1` [compound 204, N-((1-(4-(Ethylsulfonyl)piperazin-1-yl)-4,4-difluorocyclohexyl)methyl)-2,4-bis(trifluoromethyl) benzamide Hydrochloride] in this work. An IC50 of 12 nM was found for `Cn1cc(S(=O)(=O)N2CCN(C3(CNC(=O)c4cc(F)c(Cl)cc4F)CCC(F)(F)CC3)CC2)nn1` [compound 238, 4-Chloro-N-((4,4-difluoro-1-(4-(1-methyl-1H-1,2,3-triazol-4-ylsulfonyl)piperazin-1-yl)cyclohexyl)methyl)-2,5-difluorobenzamide Hydrochloride] in this work. An IC50 of 49 nM was found for `Cl.[2H]C([2H])([2H])n1cc(S(=O)(=O)N2CCN(C3(CNC(=O)c4ccc(C(F)(F)F)cc4Cl)CCC(F)(F)CC3)CC2)nn1` [compound 240, 2-Chloro-N-((4,4-difluoro-1-(4-(1-(tris-deutero)methyl-1H-1,2,3-triazol-4-ylsulfonyl)piperazin-1-yl)cyclohexyl)methyl)-4-(trifluoromethyl)benzamide Hydrochloride] in this work. An IC50 of 5 nM was found for `Cn1cnc(S(=O)(=O)N2CCN(C3(CNC(=O)c4ccccc4OC(F)F)CCC(F)(F)CC3)CC2)c1` [compound 183, N-((4,4-Difluoro-1-(4-(1-methyl-1H-imidazol-4-ylsulfonyl)piperazin-1-yl)cyclohexyl)methyl)-2-(difluoromethoxy) benzamide Hydrochloride] in this work. An IC50 of 1 nM was found for `Cn1cc(S(=O)(=O)N2CCN(C3(CNC(=O)c4c(Cl)cccc4OC(F)(F)F)CCC(F)(F)CC3)CC2)nn1` [compound 191, 2-Chloro-N-((4,4-difluoro-1-(4-(1-methyl-1H-1,2,3-triazol-4-ylsulfonyl)piperazin-1-yl)cyclohexyl)methyl)-6-(trifluoromethoxy) benzamide Hydrochloride] in this work. An IC50 of 83 nM was found for `CCS(=O)(=O)N1CCN(C2(CNC(=O)c3c(Cl)cc(C(F)(F)F)cc3C(F)(F)F)CCC(F)(F)CC2)CC1` [compound 206, 2-Chloro-N-((1-(4-(ethylsulfonyl)piperazin-1-yl)-4,4-difluorocyclohexyl)methyl)-4,6-bis(trifluoromethyl) benzamide Hydrochloride] in this work. An IC50 of 195 nM was found for `CCCS(=O)(=O)N1CCN(C2(CNC(=O)c3ccc(F)cc3F)CCC(F)(F)CC2)CC1` [compound 140, N-((4,4-Difluoro-1-(4-(propylsulfonyl)piperazin-1-yl)cyclohexyl)methyl)-2,4-difluorobenzamide Hydrochloride] in this work. An IC50 of 2 nM was found for `Cn1cnc(S(=O)(=O)N2CCN(C3(CNC(=O)c4ccc(C(F)(F)F)cc4Cl)CCC(F)(F)CC3)CC2)c1` [compound 171, N-((4,4-Difluoro-1-(4-(1-methyl-1H-imidazol-4-ylsulfonyl)piperazin-1-yl)cyclohexyl)methyl)-2-chloro-4-(trifluoromethyl)benzamide Hydrochloride] in this work. An IC50 of 5 nM was found for `Cn1cnc(S(=O)(=O)N2CCN(C3(CNC(=O)c4c(Cl)cccc4Cl)CCC(F)(F)CC3)CC2)c1` [compound 174, 2,6-Dichloro-N-((4,4-difluoro-1-(4-(1-methyl-1H-imidazol-4-ylsulfonyl)piperazin-1-yl)cyclohexyl)methyl) benzamide Hydrochloride] in this work.

Source: patent US9045445B2, “Glycine transporter-1 inhibitors, methods of making them, and uses thereof” (Albany Molecular Research, Inc., priority 2010, dated 2015)
